Entries after “also recorded” stand apart in the source; their conditions may differ. Read-outs that look alike come from different tables or passages of the source.
How the values were obtained:
AHR [1] = molecular target: AHR (Macaca fascicularis, UniProt A0A7N9CQA9); assay: AHR-dependent gene expression in cynomolgus PBMCs (Quantigene Plex); assay type: cell-based, cynomolgus macaque; conditions: cynomolgus PBMCs ex vivo
Method: The effect of Compound A on AHR-dependent gene expression was assessed in peripheral blood mononuclear cells (PBMCs) of cynomolgus macaque monkeys to assess activity in the non-rodent tox species. Cynomolgus PBMCs were treated ex vivo with Compound A and gene expression of AHR-dependent genes CYP1B1 and AHR was quantified using Quantigene Plex (QGP) custom panels.

AHR [2] = molecular target: T1, AHR (Homo sapiens, UniProt P35869); assay: CYP1B1 gene expression in human whole blood exposed ex vivo; assay type: cell-based; parameters: endogenous in cells; conditions: Compound A concentrations >0.5 μM; both donors; basal and ligand activated (L-kynurenine) conditions; 24 hours
T1 sequence (P35869 11-848): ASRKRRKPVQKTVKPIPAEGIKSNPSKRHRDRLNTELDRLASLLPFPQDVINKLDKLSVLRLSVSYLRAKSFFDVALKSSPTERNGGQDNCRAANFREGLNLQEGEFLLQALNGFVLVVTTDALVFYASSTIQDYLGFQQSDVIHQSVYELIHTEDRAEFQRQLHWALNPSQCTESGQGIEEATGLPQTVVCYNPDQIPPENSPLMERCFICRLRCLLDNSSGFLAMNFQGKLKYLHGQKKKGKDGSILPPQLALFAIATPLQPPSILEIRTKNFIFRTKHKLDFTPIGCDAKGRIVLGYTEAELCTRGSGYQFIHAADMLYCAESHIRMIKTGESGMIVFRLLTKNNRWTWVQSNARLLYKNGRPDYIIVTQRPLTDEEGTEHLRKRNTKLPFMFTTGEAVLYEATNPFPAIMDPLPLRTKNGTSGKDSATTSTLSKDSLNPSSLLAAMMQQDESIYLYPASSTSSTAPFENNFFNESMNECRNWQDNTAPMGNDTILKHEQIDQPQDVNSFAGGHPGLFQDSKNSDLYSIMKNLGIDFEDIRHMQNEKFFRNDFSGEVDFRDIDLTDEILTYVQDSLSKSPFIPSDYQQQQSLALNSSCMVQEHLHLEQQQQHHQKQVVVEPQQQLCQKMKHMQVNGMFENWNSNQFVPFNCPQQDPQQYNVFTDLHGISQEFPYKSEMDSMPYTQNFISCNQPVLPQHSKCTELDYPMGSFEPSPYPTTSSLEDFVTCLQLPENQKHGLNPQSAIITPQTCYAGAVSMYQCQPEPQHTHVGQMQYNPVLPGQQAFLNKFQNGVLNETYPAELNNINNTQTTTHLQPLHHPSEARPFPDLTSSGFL
Method: To further examine the effects of Compound A on basal and ligand-activated AHR-dependent gene expression in human immune cells, blood samples from 2 healthy human donors were exposed ex vivo to Compound A in the presence or absence of […] L-kynurenine to activate AHR. After 24 hours, cells were evaluated for CYP1B1 gene expression. […] In both donors, Compound A concentrations >0.5 μM inhibited CYP1B1 gene expression by greater than 50% under basal and ligand activated conditions.

[3] = Nonclinical safety studies in rat (incl. 28-day GLP); assay type: in vivo
[4] = Nonclinical safety: single-dose and repeated-dose toxicological studies; assay type: in vivo, rodent and non-rodent species; conditions: species not specified
[5] = Nonclinical safety studies in monkeys (incl. 28-day GLP); assay type: in vivo, monkey
[6] = Phase 1 study, interim cohort pharmacokinetics; assay type: in vivo, human
Method: Serial blood samples are obtained to characterize the plasma PK of Compound A and its major active metabolites. The initial sampling strategy is based on the predicted human PK of this compound. If in the course of evaluating the PK, it is determined that an alternative sampling scheme would be more informative, then that alternative sampling scheme can be implemented if the total amount of blood and blood draws obtained for PK is not increased. Moreover, the total number of samples can be decreased at any time if the initial sampling scheme is considered unnecessarily intensive.

AHR [7] = molecular target: T1, AHR; assay: Phase 1 study, pharmacodynamic whole blood assay of AHR target genes; assay type: in vivo; conditions: all subjects in the 200 mg, 400 mg, and 800 mg cohorts
Excerpt: Because the starting dose and any higher dose of Compound A is expected to be near or at the pharmacologically active range, each subject is required to have blood drawn and tumor biopsies for secondary and exploratory pharmacodynamic endpoints. The blood and tumor tissue samples are used to confirm AHR target engagement. Individual subjects can be exempted from the tumor biopsy requirement upon discussion and prior agreement by the Sponsor. The initial sampling strategy is based on the predicted human pharmacodynamics of Compound A. If in the course of evaluating the pharmacodynamics, it is determined that an alternative sampling scheme would be more informative, then that alternative sampling scheme can be implemented if the total amount of blood, blood draws, and tumor biopsies obtained for pharmacodynamics is not increased. Moreover, the total number of samples can be decreased at any time if the initial sampling scheme is considered unnecessarily intensive.

AHR [8] = molecular target: T1, AHR; assay: Selectivity for AHR over other receptors, transporters, and kinases

Chain of AHR (Macaca fascicularis, UniProt A0A7N9CQA9) (A0A7N9CQA9 entry or part of it): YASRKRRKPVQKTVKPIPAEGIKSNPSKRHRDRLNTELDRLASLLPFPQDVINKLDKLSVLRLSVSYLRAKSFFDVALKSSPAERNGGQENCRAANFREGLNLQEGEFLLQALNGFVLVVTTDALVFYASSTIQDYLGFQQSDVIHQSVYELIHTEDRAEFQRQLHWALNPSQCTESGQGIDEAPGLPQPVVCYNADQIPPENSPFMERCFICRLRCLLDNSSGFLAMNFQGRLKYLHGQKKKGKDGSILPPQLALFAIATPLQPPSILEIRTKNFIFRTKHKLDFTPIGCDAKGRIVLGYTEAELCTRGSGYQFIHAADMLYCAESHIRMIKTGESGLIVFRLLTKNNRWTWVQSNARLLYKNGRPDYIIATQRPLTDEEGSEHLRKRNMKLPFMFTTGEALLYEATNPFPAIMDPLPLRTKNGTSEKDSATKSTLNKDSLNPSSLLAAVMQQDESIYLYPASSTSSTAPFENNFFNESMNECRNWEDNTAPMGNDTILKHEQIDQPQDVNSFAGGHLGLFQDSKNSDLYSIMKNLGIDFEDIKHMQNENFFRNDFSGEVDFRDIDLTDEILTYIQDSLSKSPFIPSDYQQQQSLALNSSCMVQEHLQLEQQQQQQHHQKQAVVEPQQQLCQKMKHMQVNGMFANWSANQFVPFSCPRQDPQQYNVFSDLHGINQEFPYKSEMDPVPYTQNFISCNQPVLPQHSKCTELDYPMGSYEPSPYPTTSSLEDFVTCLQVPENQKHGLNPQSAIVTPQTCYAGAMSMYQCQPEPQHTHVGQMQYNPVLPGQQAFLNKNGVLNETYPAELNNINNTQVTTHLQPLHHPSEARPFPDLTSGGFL

- IC50 (AHR [1]; read-out: IC50, inhibition of AHR target gene AHR): 0.03 µM
- IC50 (AHR [1]; read-out: IC50, inhibition of AHR target gene Cyp1B1): 0.006 µM
- inhibition of CYP1B1 gene expression (AHR [2]): greater than 50%
- dose proportionality of PK ([6]; Cycle 2 Day 1 (C2D1)): greater than dose proportional
- exposure with increase in dose ([6]; interim cohort PK): Increased exposure with increase in dose
- inhibition of expression of AHR target gene CYP1B1 (AHR [7]): Robust inhibition
- selectivity for AHR over other receptors, transporters, and kinases (AHR [8]): highly selective
Compound: CC(C)c1cnn2c(N[C@@H]3CCc4[nH]c5ccccc5c4C3)nc(-c3cncc(F)c3)nc12 [Compound A, (R)—N-(2-(5-fluoropyridin-3-yl)-8-isopropylpyrazolo[1,5-a][1,3,5]triazin-4-yl)-2,3,4,9-tetrahydro-1H-carbazol-3-amine]
- noteworthy findings (rats) [3]: non-glandular stomach ulceration and edema; also recorded: seminiferous tubule degeneration and debris in the epididymis lumen
- noteworthy findings [4]: emesis, loose stool, dehydration, body weight loss
- noteworthy findings (monkey) ([5]; monkey): decreased thymus weights and cortical lymphocytes
- QTc prolongation ([5]; monkeys): up to 11%

From patent US20240148740A1, “COMBINATION OF AN AHR INHIBITOR WITH A PDX INHIBITOR OR DOXORUBICINE” (Ikena Oncology, Inc., priority 2020, published 2024)
